Measured values: patent EP4806904A1, “POLYPEPTIDE AND USE THEREOF” (Sichuan Gooddoctor Panxi Pharmaceutical Co. Ltd, priority 2023, dated 2026)
Where a SMILES comes first, the peptide text is derived from it. [ ]: non-standard residue; d: D form.

What was measured:
[1] = test system: primary neural stem cells (NSCs); experiment: Differentiation of primary neural stem cells, βIII-tubulin fluorescence and Neurite Outgrowth Assay; assay type: cell-based, SD rats; conditions: 100 µg/mL; for neurite outgrowth (total neurite length, maximum neurite length, neurite terminals, neurite initiation points) / Neurite initiation points (branches) / Total neurite length / mean fluorescence intensity of the neuronal marker protein βIII-tubulin / Longest neurite length / Number of neurite terminals / Average fluorescence intensity: 4 days; for neurite outgrowth (total neurite length, maximum neurite length, neurite terminals, neurite initiation points): Neurite Outgrowth Assay; for neurite outgrowth (total neurite length, maximum neurite length, neurite terminals, neurite initiation points) / mean fluorescence intensity of the neuronal marker protein βIII-tubulin: in words; for Neurite initiation points (branches) / Total neurite length / Longest neurite length / Number of neurite terminals / Average fluorescence intensity: significance vs blank control group; for mean fluorescence intensity of the neuronal marker protein βIII-tubulin: vs blank control group; for differentiation of NSCs into neuronal cells: conclusion based on the results of the two analytical methods; for Average fluorescence intensity: βIII-tubulin
Method: This part of the experiment requires feeding male and female rats in advance, then extracting hippocampal neural stem cells from newborn SD rats within 24 h of birth, culturing them to P3 for identification, and then using them for experiments. • (1) Extraction and culture of primary neural stem cells (NSCs) • (2) NSCs that have been passaged to P3 and have good viability were seeded in differentiation medium (2% FBS+DMEM/F12 1:1 medium) in 48-well plates with a cell concentration of 5×10^4 cells/mL per well. After overnight culture for cell adherence, the cells were treated with drugs; • (3) Drug treatment was applied. The final concentration of the polypeptide of the invention was 100 µg/mL. Meanwhile, nerve growth factor (NGF, 50 ng/mL) was set as the positive control, and the cells were cultured in the incubator for another 4 days; • (4) Immunofluorescence staining (primary antibody βIII-tubulin) was performed after 4 days of treatment. The average fluorescence intensity of βIII-tubulin was analyzed and the Neurite Outgrowth Assay was performed using a high-content cell imaging analysis system.

[2] = test system: Brain microvascular endothelial cells (BMECs) and brain microvascular smooth muscle cells (BMVSMCs); experiment: In vitro angiogenesis assay, BMEC/BMVSMC co-culture on matrigel; assay type: cell-based, mouse; conditions: 0.1 mg/L, 48 h
Method: First, mouse brain microvascular pellets were obtained by differential centrifugation. Brain microvascular endothelial cells (BMECs) and brain microvascular smooth muscle cells (BMVSMCs) were isolated by digestion with collagenase II, respectively, and cultured in a cell incubator with 5% CO2 at 37°C . Cells at passages 3-6 in good growth condition and logarithmic growth phase were selected for the in vitro angiogenesis assay.
One night before the experiment, the high-concentration matrigel was transferred from a -20°C or -80°C refrigerator to a 4°C refrigerator and allowed to thaw slowly overnight in the 4°C refrigerator. Pipette tips required for the formal experiment were sterilized in advance and pre-cooled in a 4°C refrigerator for subsequent use.
On the day of the experiment, the matrigel was added to a 96-well plate 1 h in advance and placed in a 37°C cell incubator until it solidified. Subsequently, the cells were washed 2 times with 2 mL of PBS buffer, followed by digestion with 0.25% trypsin to obtain EC and VSMC pellets, respectively, and cell counting was performed. A uniform cell suspension containing 5×10^3 BMVSMCs and 1×10^3 BMECs per well was then seeded into the 96-well plate pre-coated with the matrigel, and cultured in a 37°C, 5% CO2 cell incubator for 3 days.
During the culture period, tube formation was observed daily. The medium was changed on day 4, followed by treatment with the polypeptide of the invention at 0.1 mg/L or VEGFA at 10/15/20 ng/L for 48 h, respectively.
On day 5, the cell nuclei and live cells were labeled with Hoechst 33342 and Calcein AM, respectively. High-content brightfield and fluorescence imaging were then performed using a high-content screening system. Finally, angiogenesis in each treatment group was analyzed using the Angiogenesis Analyzer plugin for ImageJ, and statistical analysis was carried out with GraphPad Prism 10.

[3] = significance vs blank control group

Molecule	neurite outgrowth (total neurite length, maximum neurite length, neurite terminals, neurite initiation points) [1]	Neurite initiation points (branches) [1]	Total neurite length [1]	Branch length [2, 3]	Cell count [2, 3]	Number of intersections [2, 3]	angiogenesis-promoting effects ([2]; vs normal group, in words)	mean fluorescence intensity of the neuronal marker protein βIII-tubulin [1]	Longest neurite length [1]	Number of neurite terminals [1]	other results
CC(=O)N[C@@H](C)C(=O)N[C@@H](CC(C)C)C(=O)N1CCC[C@H]1C(=O)N[C@@H](C)C(=O)N1CCC[C@@H]1C(=O)NCC(=O)N[C@H](C(=O)N[C@@H](CC(C)C)C(N)=O)[C@@H](C)O [Compound 41, Ac-Ala-Leu-Pro-Ala-D-Pro-Gly-Thr-Leu-NH2] (Ac-ALPA[dP]GTL-NH2)	tendency to promote neurite outgrowth	* (*p < 0.05)	* (*p < 0.05)	** (**p < 0.01)	*** (***p < 0.001)	** (**p < 0.01)	exhibited angiogenesis-promoting effects				
H-PAPGTL-OH [Compound 26, H-Pro-Ala-Pro-Gly-Thr-Leu-OH]				* (*p < 0.05)		* (*p < 0.05)	exhibited angiogenesis-promoting effects	tendency to enhance			
CC(C)C[C@H](NC(=O)[C@@H](NC(=O)CN)[C@@H](C)O)C(=O)O [Compound 38, H-Gly-Thr-Leu-OH] (H-Gly-Thr-Leu-OH)				** (**p < 0.01)	* (*p < 0.05)	** (**p < 0.01)	exhibited angiogenesis-promoting effects	tendency to enhance			
H-LPAPGTL-OH [Compound 29, H-Leu-Pro-Ala-Pro-Gly-Thr-Leu-OH]								tendency to enhance			
H-APGTL-OH [Compound 34, H-Ala-Pro-Gly-Thr-Leu-OH]	promote neurite outgrowth	* (*p < 0.05)	* (*p < 0.05)	** (**p < 0.01)	** (**p < 0.01)	** (**p < 0.01)	exhibited angiogenesis-promoting effects	significant increase	* (*p < 0.05)	** (**p < 0.01)	differentiation of NSCs into neuronal cells [1]: promote the differentiation of NSCs into neuronal cells with stable effects; Average fluorescence intensity [1]: * (*p < 0.05)
H-QLPAPGTLQHF-OH [Compound 25, H-Gln-Leu-Pro-Ala-Pro-Gly-Thr-Leu-Gln-His-Phe-OH]					** (**p < 0.01)			significant increase			Average fluorescence intensity [1]: * (*p < 0.05); cell proliferation ([2]; vs normal group, in words): only promoted cell proliferation
H-ALPAPGT-OH [Compound 39, H-Ala-Leu-Pro-Ala-Pro-Gly-Thr-OH]				** (**p < 0.01)	* (*p < 0.05)	** (**p < 0.01)	exhibited angiogenesis-promoting effects				
H-ALPAP-OH [Compound 30, H-Ala-Leu-Pro-Ala-Pro-OH]	tendency to promote neurite outgrowth			* (*p < 0.05)	** (**p < 0.01)			significant increase	* (*p < 0.05)		Average fluorescence intensity [1]: *** (***p < 0.001)
CC(C)C[C@H](NC(=O)[C@@H](NC(=O)CNC(=O)[C@@H]1CCCN1C(=O)[C@H](C)NC(=O)[C@H]1CCCN1C(=O)[C@H](CC(C)C)NC(=O)[C@H](C)N)[C@@H](C)O)C(=O)O [Compound 4, H-Ala-Leu-D-Pro-Ala-Pro-Gly-Thr-Leu-OH] (H-AL[dP]APGTL-OH)		** (**p < 0.01)	** (**p < 0.01)		* (*p < 0.05)				*** (***p < 0.001)	** (**p < 0.01)	cell proliferation ([2]; vs normal group, in words): only promoted cell proliferation
H-PAPGT-OH [Compound 27, H-Pro-Ala-Pro-Gly-Thr-OH]	promote neurite outgrowth	** (**p < 0.01)	* (*p < 0.05)						** (**p < 0.01)	* (*p < 0.05)	
CC(C)C[C@H](NC(=O)[C@H](C)N)C(=O)N1CCC[C@H]1C(=O)N[C@@H](C)C(=O)O [Compound 35, H-Ala-Leu-Pro-Ala-OH] (H-ALPA-OH)	promote neurite outgrowth	* (*p < 0.05)	* (*p < 0.05)		** (**p < 0.01)			significant increase	** (**p < 0.01)	* (*p < 0.05)	differentiation of NSCs into neuronal cells [1]: promote the differentiation of NSCs into neuronal cells with stable effects; Average fluorescence intensity [1]: * (*p < 0.05); cell proliferation ([2]; vs normal group, in words): only promoted cell proliferation
H-LPAPG-OH [Compound 33, H-Leu-Pro-Ala-Pro-Gly-OH]				** (**p < 0.01)	** (**p < 0.01)	** (**p < 0.01)	exhibited angiogenesis-promoting effects				
H-ALGAPGTL-OH [Compound 14, H-Ala-Leu-Gly-Ala-Pro-Gly-Thr-Leu-OH]					* (*p < 0.05)	* (*p < 0.05)					Branch length ([2]; vs normal group, in words): no significant effects; number of junctions ([2]; vs normal group, in words): promoting effects
H-QLPAPGTL-OH [Compound 22, H-Gln-Leu-Pro-Ala-Pro-Gly-Thr-Leu-OH]	promote neurite outgrowth	* (*p < 0.05)	* (*p < 0.05)	* (*p < 0.05)					* (*p < 0.05)	* (*p < 0.05)	Branch length ([2]; vs normal group, in words): promoting effects; number of junctions ([2]; vs normal group, in words): no significant effects
CC(C)C[C@H](N)C(=O)N1CCC[C@H]1C(=O)N[C@@H](C)C(=O)N1CCC[C@H]1C(=O)O [Compound 31, H-Leu-Pro-Ala-Pro-OH] (H-LPAP-OH)				** (**p < 0.01)				tendency to enhance			
H-PIASQHLNLAPAPGTI-OH [Compound 23, H-Pro-Ile-Ala-Ser-Gln-His-Leu-Asn-Leu-Ala-Pro-Ala-Pro-Gly-Thr-Ile-OH]	tendency to promote neurite outgrowth		* (*p < 0.05)					tendency to enhance		* (*p < 0.05)	
H-AKNQLPAPGTLQHFC-OH [Compound 24, H-Ala-Lys-Asn-Gln-Leu-Pro-Ala-Pro-Gly-Thr-Leu-Gln-His-Phe-Cys-OH]		* (*p < 0.05)						significant increase			Average fluorescence intensity [1]: * (*p < 0.05)
Ac-ALPAPGTL-OH [Compound 9, Ac-Ala-Leu-Pro-Ala-Pro-Gly-Thr-Leu-OH]				* (*p < 0.05)							Branch length ([2]; vs normal group, in words): promoting effects; number of junctions ([2]; vs normal group, in words): no significant effects
